Where two headings read alike, the source gives them in different places.
Assays:
dengue virus = assay: Inhibitory effect against dengue virus in Vero E6 cells; assay type: cell-based
Description: On the next day, a compound having a concentration of 0.0625 micro M was prepared from a compound having a concentration of 3 micro M and treated to Vero E6 cells, and then the cells treated with the compound were immediately infected with dengue virus (0.01 MOI) and cultured at 37° C. for five days.

in vitro [1] = settings: African green monkey
in vitro [2] = settings: African green monkey; remark: listed apart in the source
Zika virus = assay: Inhibitory effect against Zika virus in Vero cells; assay type: cell-based
[3] = tested on: SFTS virus (KADGH; NCCP43261); assay: microbe, parasite or virus in culture; assay type: cell-based, severe fever with thrombocytopenia syndrome virus; set-up: SI (Selectivity Index, CC50/IC50): unit not given here; settings: for SI (Selectivity Index, CC50/IC50): SFTS virus; for IC50: Severe fever with thrombocytopenia syndrome virus, Vero, 24 h, read-out: SFTSV inhibition (IC50, μM)
SARS-COV-2 = assay: microbe, parasite or virus in culture; assay type: cell-based; set-up: SI (Selectivity Index, CC50/IC50): unit not given here; settings: for SI (Selectivity Index, CC50/IC50): SARS-COV-2, values >50 assumed to be 50; for IC50: read-out: SARS-COV-2 inhibition (IC50)
[4] = tested on: IL-5 secretion in mouse splenocytes; assay: Inhibition of IL-5 secretion in mouse splenocytes (Concanavalin A, ELISA); assay type: cell-based, Balb/c mice; settings: for inhibition at 1 µM: Splenocyte, read-out: IL-5 Secretion inhibitory ability (%); for IL-5 pg/ml: Concanavalin A 5 μg/mL, 48 hours
Description: (§1) The isolated splenocytes were diluted at a concentration of 5×10^6 cells/mL in RPMI medium containing 10% fetal bovine serum (FBS) and antibiotics (penicillin at 100 U/mL, streptomycin at 100 μg/mL), distributed at 500 μl/well in a 24 well plate, and cultured in a 37° C., 5% CO2 incubator for 48 hours. When splenocytes were distributed, an immune reaction was induced by treating with 5 μg/mL of Concanavalin A, and at this time, the splenocytes were treated with the materials selected in Experimental Example 3 at a concentration of 1 uM. First, in order to measure Th2 cytokines, the medium was collected from the 24-well plate, and only the supernatant was separated through centrifugation at 800×g for five minutes, after which 100 μl of the supernatant per well was used in an enzyme-linked immunosorbent assay (ELISA, Komabiotech) experiment so as to measure a degree of secretion of Th2 cytokines IL-4 and IL-5. A degree of inhibition against secretion of cytokines by the test material was calculated using [Equation 2] below, and the measurement results are shown in Table 7.

[5] = tested on: IL-4 secretion in mouse splenocytes; assay: Inhibition of IL-4 secretion in mouse splenocytes (Concanavalin A, ELISA); assay type: cell-based, Balb/c mice; settings: for inhibition at 1 µM: Splenocyte, read-out: IL-4 Secretion inhibitory ability (%); for IL-4 pg/ml: Concanavalin A 5 μg/mL, 48 hours
Description: as §1

[6] = tested on: IL-4 secretion in RBL-2H3 cells; assay: Inhibition of IL-4 secretion in RBL-2H3 cell line (A23187 induced, ELISA); assay type: cell-based; settings: Rattus norvegicus
Description: The RBL-2H3 cell line was purchased from the American Type Culture Collection (ATCC #CRL-2256). The cells were diluted at a concentration of 1×10^6 cells/ml in RPMI medium containing 15% fetal bovine serum (FBS) and antibiotics (penicillin at 100 U/mL, streptomycin at 100 μg/mL), distributed at 200 μl/well in a 48 well plate, and cultured in a 37° C., 5% CO2 incubator for 24 hours. In 24 hours later, the cells were pre-treated one hour before with a test drug and AS1517499 (STAT6 inhibitor) as a control drug, and treated with 1 uM of A23187 for six hours to induce an immune response, after which a group not containing the drug was used as a control. In order to measure a secretion level of cytokine IL-4, the medium was collected from the well plate and centrifuged at 125×g for five minutes to remove a residue, and 100 μl of the medium was used to measure an amount of IL-4 secreted from the cells by using IL-4 enzyme-linked immunosorbent assay (ELISA, Komabiotech). A degree of inhibition of cell secretion by the drug was calculated using [Equation 1] below.
First of all, 288 kinds of materials were treated at a single concentration of 10 uM so as to select 60 kinds of materials which inhibit secretion of IL-4 by 75% or more (FIG. 19).
After that, a repeated experiment and a two-concentration (10, 3 uM) test were performed using the selected 60 kinds of materials so as to select the final eight kinds, and the IC50 value was calculated and shown in Table 3.

[7] = tested on: Balb/c mouse asthma model; assay: Balb/c mouse asthma model (ovalbumin), BALF IgE, IL-4, IL-5 and inflammatory cells; assay type: in vivo, Balb/c mice
Description: In detail, five-week-old Balb/c mice were purchased and acclimated for one week, after which the mice were sensitized systemically by intraperitoneal injection with 0.1% ovalbumin (OVA 1 mg/mL, Al(OH)3 20 mg/mL) at 100 μl/mouse on days 0 and 14 from a week after the acclimation. From a week (day 21) after a final systemic sensitization, the compound of Example 73 was orally administered everyday at 10 mg/kg to mice for ten days, and dexamethasone was intraperitoneally administered at 1 mg/kg as a positive control group. In one hour later, 0.2% ovalbumin solution was sprayed with a nebulizer (PARIBoy SX, GmbH, Germany) so as to be inhaled for one hour. In five hours after the final sensitization (day 30), an autopsy was performed, and 1 mL of phosphate buffer solution was flowed through a tracheotomy to collect a bronchoalveolar lavage fluid (BALF). The collected BALF was centrifuged at 3000 rpm for ten minutes, and the supernatant was used to measure bioactive materials (IL-4, IL-5), and pellets were used to measure the number of inflammatory cells. In addition, an IgE concentration in the isolated BALF was measured using IgE enzyme-linked immunosorbent assay (ELISA, Komabiotech), and IL-4 and IL-5 were measured using their respective enzyme-linked immunosorbent assay (ELISA, IL-4: Enzo #ADI-900-043, IL-5: R&D system #M5000).
The results are shown in Table 8 and FIG. 22, and each secretion inhibitory activity was calculated in the same manner as in [Equation 2] of Experimental Example 4.
In addition, the BALF pellets were re-dissolved by adding 0.5 mL of phosphate buffer solution, and then 0.1 mL for each thereof was added to a 96-well plate and centrifuged at 800 rpm for five minutes to attach cells to the bottom (three wells per sample). Then, the cells were stained with Diff Quik staining solution (Sysmex) and the number of cells was measured with […].
The results were shown in FIG. 21, the SPSS program was used for statistical processing, the Levene test was performed for equal-variance test, and the significance test was performed through one-way ANOVA.

[8] = Severe acute respiratory syndrome coronavirus 2, Vero cells, 24 hours infection
[9] = mouse splenocytes, compound 1 μM
[10] = RBL-2H3 cells, 1 uM A23187, read-out: IL-4 secretion inhibition IC50
[11] = Severe acute respiratory syndrome coronavirus 2, Vero, 24 h
[12] = Example 73 10 mg/kg oral, dexamethasone 1 mg/kg intraperitoneal
[13] = Mean ± S.D., n = 5, Example 73 10 mg/kg oral, dexamethasone 1 mg/kg intraperitoneal, ten days

COc1cc2cc3c(c(-c4ccc5c(c4)OC(F)(F)O5)c2cc1OC)C(=O)OC3 [Example 221, 9-(2,2-difluorobenzo[d][1,3]dioxol-5-yl)-6,7-dimethoxynaphtho[2,3-c]furan-1(3H)-one]
protection from cytopathic effects induced by dengue virus (dengue virus): protects from cytopathic effects
EC50 (dengue virus; Dengue virus, Vero C1008, 120 h, 0.01 MOI, five days, read-out: Dengue virus Inhibitory ability (EC50)): 0.079 µM
CC50 (in vitro [1]): > 50 µM
CC50 at 24 h (in vitro [2]): 457 µM
protection from cytopathic effects induced by Zika virus (Zika virus): protects from cytopathic effects
EC50 (Zika virus; Zika virus, 120 h, 0.02 MOI, five days, read-out: Zika virus Inhibitory ability (EC50)): 0.484 µM
SI (Selectivity Index, CC50/IC50) [3]: 11472
IC50 [3]: 0.04 µM
SI (Selectivity Index, CC50/IC50) (SARS-COV-2): 275.32
IC50 (SARS-COV-2; [8]): 0.18 µM

CCC(C)CN(C)c1ncc(-c2c3c(cc4cc(OC)c(OC)cc24)COC3=O)cn1 (stereo not shown) [Example 65, 6,7-dimethoxy-9-(2-(methyl(2-methylbutyl)amino)pyrimidin-5-yl)naphtho[2,3-c]furan-1(3H)-one]
inhibition at 1 µM [4, 9]: 73%
IL-5 pg/ml [4, 9]: 25.2 pg/mL
CC50 (in vitro [1]): > 50 µM
inhibition at 1 µM [5, 9]: 99.5%
IL-4 pg/ml [5, 9]: 1.5 pg/mL
SI (Selectivity Index, CC50/IC50) (SARS-COV-2): 19.30
IC50 (SARS-COV-2; [8]): 2.59 µM
IC50 [6, 10]: 2.18 µM

COc1cc2cc3c(c(-c4cnc(N5CCCC(C)C5)nc4)c2cc1OC)C(=O)OC3 (stereo not shown) [Example 59, 6,7-dimethoxy-9-(2-(3-methylpiperidin-1-yl)pyrimidin-5-yl)naphtho[2,3-c]furan-1(3H)-one]
inhibition at 1 µM [4, 9]: 44.3%
IL-5 pg/ml [4, 9]: 51.9 pg/mL
CC50 (in vitro [1]): > 50 µM
inhibition at 1 µM [5, 9]: 79%
IL-4 pg/ml [5, 9]: 71.6 pg/mL
SI (Selectivity Index, CC50/IC50) (SARS-COV-2): 20.79
IC50 (SARS-COV-2; [8]): 2.4 µM
IC50 [6, 10]: 2.35 µM

COc1cc2cc3c(c(-c4cnc(N(CC(C)C)CC(C)C)nc4)c2cc1OC)C(=O)OC3.Cl [Example 86, 9-(2-(diisobutylamino)pyrimidin-5-yl)-6,7-dimethoxynaphtho[2,3-c]furan-1(3H)-one hydrochloride]
inhibition at 1 µM ([4]; Mus musculus): 23.7%
IL-5 pg/ml [4, 9]: 71.0 pg/mL
CC50 (in vitro [1]): 19.2 µM
inhibition at 1 µM ([5]; Mus musculus): 71.8%
IL-4 pg/ml [5, 9]: 96.0 pg/mL
SI (Selectivity Index, CC50/IC50) (SARS-COV-2): 0.75
IC50 (SARS-COV-2; [11]): 25.7 µM
IC50 ([6]; RBL-2H3, read-out: IL-4 secretion inhibition IC50 (μM)): 2.21 µM

NC(=O)c1ncn([C@@H]2O[C@H](CO)[C@@H](O)[C@H]2O)n1 [Ribavirin]
CC50 at 24 h (in vitro [2]): 1270 µM
IC50 [3]: 64.8 µM

COc1cc2cc3c(c(-c4ccc(N(C)c5cccc(C#N)c5)nc4)c2cc1OC)C(=O)OC3.Cl [Example 237, 3-((5-(6,7-dimethoxy-3-oxo-1,3-dihydronaphtho[2,3-c]furan-4-yl)pyridin-2-yl)(methyl)amino)benzonitrile]
CC50 (in vitro [1]): > 50 µM
CC50 at 24 h (in vitro [2]): 1020 µM
SI (Selectivity Index, CC50/IC50) [3]: 1277
IC50 [3]: 0.794 µM
SI (Selectivity Index, CC50/IC50) (SARS-COV-2): 61.98
IC50 (SARS-COV-2; [11]): 0.81 µM

CCN(CC)CCCC(C)Nc1ccnc2cc(Cl)ccc12 (stereo not shown) [Chloroquine]
CC50 (in vitro [2]): 104 µM
IC50 [3]: 21.8 µM

COc1cc2cc3c(c(-c4cc5c(cc4OC(=O)c4ccccn4)OCO5)c2cc1OC)C(=O)OC3 [Example 169, 6-(6,7-dimethoxy-3-oxo-1,3-dihydronaphtho[2,3-c]furan-4-yl)benzo[d][1,3]dioxol-5-yl picolate]
inhibition at 1 µM [4, 9]: 27.9%
IL-5 pg/ml [4, 9]: 67.1 pg/mL
CC50 (in vitro [1]): > 50 µM
inhibition at 1 µM [5, 9]: 86.3%
IL-4 pg/ml [5, 9]: 46.7 pg/mL
SI (Selectivity Index, CC50/IC50) (SARS-COV-2): 40.73
IC50 (SARS-COV-2; [8]): 1.23 µM
IC50 [6, 10]: 2.34 µM

COc1cc2cc3c(c(-c4ccc(N(C)C5Cc6ccccc6C5)nc4)c2cc1OC)C(=O)OC3 [Example 194, 9-(6-((2,3-dihydro-1H-indan-2-yl)(methyl)amino)pyridin-3-yl)-6,7-dimethoxynaphtho[2,3-c]furan-1(3H)-one]
CC50 (in vitro [1]): > 50 µM
CC50 at 24 h (in vitro [2]): 47100 µM
SI (Selectivity Index, CC50/IC50) [3]: 48785
IC50 [3]: 0.965 µM
SI (Selectivity Index, CC50/IC50) (SARS-COV-2): 33.63
IC50 (SARS-COV-2; [8]): 1.49 µM

CCCCN(CCCC)c1ncc(-c2c3c(cc4cc(OC)c(OC)cc24)COC3=O)cn1 [Example 73, 9-(2-(dibutylamino)pyrimidin-5-yl)-6,7-dimethoxynaphtho[2,3-c]furan-1(3H)-one]
inhibition at 1 µM [4, 9]: 20.4%
IL-5 pg/ml [4, 9]: 74.1 pg/mL
CC50 (in vitro [1]): > 50 µM
number of eosinophils in BALF ([7]; 10 mg/kg oral, ten days): significantly reduced
BALF IL-4 Secretion inhibitory ability % [7, 12]: (51.3%)
BALF IL-5 Secretion inhibitory ability % [7, 12]: (33.7%)
BALF IgE Secretion inhibitory ability % [7, 12]: (24.3%)
BALF IL-4 pg/ml [7, 13]: 64.9 ± 35.025 pg/mL
BALF IL-5 pg/ml [7, 13]: 20.7 ± 13.46 pg/mL
BALF IgE [7, 13]: 10.5 ± 3.282 ng/mL
inhibition at 1 µM [5, 9]: 74.7%
IL-4 pg/ml [5, 9]: 86.3 pg/mL
SI (Selectivity Index, CC50/IC50) (SARS-COV-2): 6.53
IC50 (SARS-COV-2; [8]): 7.66 µM
IC50 [6, 10]: 3.19 µM
